# Legend:
# HepG2 = experiment: Cytotoxicity against telomerase-positive human HepG2 cells assessed as inhibition of cell growth incubated for 48 hrs by MTT assay; format: functional, cell-based; settings: HepG2, 48 h
# HeLa = experiment: Cytotoxicity against telomerase-positive human HeLa cells assessed as inhibition of cell growth incubated for 48 hrs by MTT assay; format: functional, cell-based
# PC-3 = experiment: Cytotoxicity against telomerase-positive human PC-3 cells assessed as inhibition of cell growth incubated for 48 hrs by MTT assay; format: functional, cell-based; settings: PC-3, 48 h
# U2OS = experiment: Cytotoxicity against alternative lengthening of telomere-positive human U2OS cells assessed as inhibition of cell growth incubated for 48 hrs by MTT assay; format: functional, cell-based
# A549 = experiment: Cytotoxicity against telomerase-positive human A549 cells assessed as inhibition of cell growth incubated for 48 hrs by MTT assay; format: functional, cell-based; settings: A549, 48 h
# MDA-MB-231 = experiment: Cytotoxicity against telomerase-positive human MDA-MB-231 cells assessed as inhibition of cell growth incubated for 48 hrs by MTT assay; format: functional, cell-based; settings: MDA-MB-231, 48 h
# [1] = Cytotoxicity against HUVEC cells assessed as inhibition of cell growth incubated for 48 hrs by MTT assay; format: toxicity, cell-based; settings: human
# [2] = Cytotoxicity against human HK-2 cells assessed as inhibition of cell growth incubated for 48 hrs by MTT assay; format: toxicity, cell-based
Compound,IC50 (HepG2),IC50 (HeLa),IC50 (PC-3),IC50 (U2OS),IC50 (A549),IC50 (MDA-MB-231),IC50 at 48 h [1],IC50 at 48 h [2]
C[n+]1c(/C=C/c2c[nH]c3ccccc23)cc(/C=C2\Sc3ccccc3N2CCCN2CCCCC2)c2ccccc21,4.5 µM,1.8 µM,3.8 µM,5.1 µM,1.7 µM,3.1 µM,11.9 µM,5.4 µM
CCN(CC)CCCN1/C(=C/c2cc(/C=C/c3c[nH]c4ccccc34)[n+](C)c3ccccc23)Sc2ccccc21,4.7 µM,1.9 µM,5.4 µM,9.4 µM,2.3 µM,2.1 µM,14.5 µM,4.6 µM
C[n+]1c(/C=C/c2cc3ccccc3[nH]2)cc(/C=C2\Sc3ccccc3N2CCCN2CCOCC2)c2ccccc21,5.2 µM,4.1 µM,4.8 µM,14.8 µM,5 µM,6.4 µM,16.6 µM,9.5 µM
CCN(CC)CCCN1/C(=C/c2cc(/C=C/c3cc4ccccc4[nH]3)[n+](C)c3ccccc23)Sc2ccccc21,5.4 µM,3.3 µM,3.1 µM,10.3 µM,4.7 µM,5.6 µM,11.9 µM,9.5 µM
CC1CCN(CCCN2/C(=C/c3cc(/C=C/c4c[nH]c5ccccc45)[n+](C)c4ccccc34)Sc3ccccc32)CC1,3.2 µM,1.9 µM,2.4 µM,5.3 µM,1.7 µM,1.9 µM,6 µM,5.5 µM
CC1CCN(CCCN2/C(=C/c3cc(/C=C/c4cc5ccccc5[nH]4)[n+](C)c4ccccc34)Sc3ccccc32)CC1,5 µM,3.1 µM,2.5 µM,6.2 µM,4.3 µM,2.6 µM,8 µM,6.3 µM
C[n+]1c(/C=C/c2cc3ccccc3[nH]2)cc(/C=C2\Sc3ccccc3N2CCCN2CCCCC2)c2ccccc21,4.5 µM,3 µM,3.3 µM,5 µM,3.6 µM,3.3 µM,9.4 µM,7.9 µM
C[n+]1c(/C=C/c2cc3ccccc3[nH]2)cc(/C=C2\Sc3ccccc3N2CCCN2CCC(C(F)(F)F)CC2)c2ccccc21,4.7 µM,5.5 µM,3.9 µM,9.8 µM,6.6 µM,5.3 µM,12 µM,14.7 µM
C[n+]1c(/C=C/c2c[nH]c3ccccc23)cc(/C=C2\Sc3ccccc3N2CCCN2CCOCC2)c2ccccc21,5.8 µM,2.3 µM,4.7 µM,7.8 µM,2.1 µM,2.9 µM,16.5 µM,5.8 µM
CC(C)(C)OO [TERT-BUTYL HYDROPEROXIDE],–,–,–,–,–,549 µM,–,–
